Legend:
[1] = target: T1, Eukaryotic elongation factor 2 kinase (Homo sapiens) (UniProt O00418); assay: Residual activity of EEF2K at 1 uM by microplate scintillation counting
T1 sequence (whole entry): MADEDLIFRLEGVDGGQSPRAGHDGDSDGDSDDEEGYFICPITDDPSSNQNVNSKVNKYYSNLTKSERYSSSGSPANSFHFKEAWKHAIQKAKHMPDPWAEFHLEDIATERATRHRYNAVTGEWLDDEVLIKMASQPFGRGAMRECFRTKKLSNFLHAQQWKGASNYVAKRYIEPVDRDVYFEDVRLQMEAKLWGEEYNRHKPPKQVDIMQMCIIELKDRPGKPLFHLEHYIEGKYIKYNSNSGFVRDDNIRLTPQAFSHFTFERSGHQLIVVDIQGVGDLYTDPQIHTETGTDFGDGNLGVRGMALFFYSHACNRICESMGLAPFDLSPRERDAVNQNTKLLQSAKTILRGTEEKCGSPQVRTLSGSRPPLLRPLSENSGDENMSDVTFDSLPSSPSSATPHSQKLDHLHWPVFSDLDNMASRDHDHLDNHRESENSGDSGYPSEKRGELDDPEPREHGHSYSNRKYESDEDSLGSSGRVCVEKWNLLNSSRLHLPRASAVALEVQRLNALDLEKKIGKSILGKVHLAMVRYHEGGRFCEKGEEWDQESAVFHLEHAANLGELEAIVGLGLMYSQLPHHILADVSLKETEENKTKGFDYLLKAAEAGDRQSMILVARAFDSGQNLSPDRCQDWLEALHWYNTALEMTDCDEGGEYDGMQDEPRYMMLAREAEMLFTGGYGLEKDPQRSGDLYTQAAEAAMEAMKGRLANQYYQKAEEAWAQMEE

[2] = target: T2, Serine/threonine-protein kinase D3 (Homo sapiens) (UniProt O94806); assay: Residual activity of PKCnu at 0.1 uM by microplate scintillation counting
T2 sequence (whole entry): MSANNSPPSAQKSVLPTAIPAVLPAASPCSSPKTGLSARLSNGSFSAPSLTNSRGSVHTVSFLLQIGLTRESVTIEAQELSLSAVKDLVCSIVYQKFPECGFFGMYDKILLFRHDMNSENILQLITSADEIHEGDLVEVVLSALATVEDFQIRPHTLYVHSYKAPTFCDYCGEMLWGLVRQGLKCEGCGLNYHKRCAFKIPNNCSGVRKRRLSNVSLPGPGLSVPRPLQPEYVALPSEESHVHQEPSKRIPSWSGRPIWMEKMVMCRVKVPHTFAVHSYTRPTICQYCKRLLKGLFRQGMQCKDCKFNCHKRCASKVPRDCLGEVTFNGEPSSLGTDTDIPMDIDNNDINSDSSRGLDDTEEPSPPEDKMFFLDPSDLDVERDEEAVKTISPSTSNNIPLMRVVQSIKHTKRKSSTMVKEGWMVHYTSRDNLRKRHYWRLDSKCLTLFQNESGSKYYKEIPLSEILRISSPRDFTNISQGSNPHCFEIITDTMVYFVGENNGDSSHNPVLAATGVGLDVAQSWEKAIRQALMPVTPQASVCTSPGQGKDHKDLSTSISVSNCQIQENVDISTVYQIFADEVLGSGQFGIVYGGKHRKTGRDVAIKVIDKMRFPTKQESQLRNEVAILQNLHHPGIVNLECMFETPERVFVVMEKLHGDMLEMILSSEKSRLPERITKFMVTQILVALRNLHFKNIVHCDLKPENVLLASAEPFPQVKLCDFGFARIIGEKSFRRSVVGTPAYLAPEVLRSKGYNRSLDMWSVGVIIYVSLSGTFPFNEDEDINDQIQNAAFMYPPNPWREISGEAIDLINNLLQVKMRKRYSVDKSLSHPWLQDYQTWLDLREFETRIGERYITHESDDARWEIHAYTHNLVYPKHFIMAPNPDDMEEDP

[3] = tested on: T3, Dual specificity mitogen-activated protein kinase kinase 6 (Homo sapiens), P52564 [S207D,T211D]; assay: Residual activity of MKK6 S207D/T211D mutant at 1 uM by microplate scintillation counting
T3 sequence (whole entry): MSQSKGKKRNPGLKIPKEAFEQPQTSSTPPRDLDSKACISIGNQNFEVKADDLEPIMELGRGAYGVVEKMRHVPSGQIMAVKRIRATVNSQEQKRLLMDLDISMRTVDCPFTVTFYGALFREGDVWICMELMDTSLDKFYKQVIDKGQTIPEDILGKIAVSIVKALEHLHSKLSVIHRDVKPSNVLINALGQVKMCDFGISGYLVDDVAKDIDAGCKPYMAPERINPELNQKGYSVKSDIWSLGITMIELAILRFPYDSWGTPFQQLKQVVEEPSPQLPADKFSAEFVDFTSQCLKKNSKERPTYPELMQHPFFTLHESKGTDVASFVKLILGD

[4] = target: T4, Ephrin type-A receptor 1 (Homo sapiens) (UniProt P21709); assay: Residual activity of EPHA1 at 10 uM by microplate scintillation counting
T4 sequence (whole entry): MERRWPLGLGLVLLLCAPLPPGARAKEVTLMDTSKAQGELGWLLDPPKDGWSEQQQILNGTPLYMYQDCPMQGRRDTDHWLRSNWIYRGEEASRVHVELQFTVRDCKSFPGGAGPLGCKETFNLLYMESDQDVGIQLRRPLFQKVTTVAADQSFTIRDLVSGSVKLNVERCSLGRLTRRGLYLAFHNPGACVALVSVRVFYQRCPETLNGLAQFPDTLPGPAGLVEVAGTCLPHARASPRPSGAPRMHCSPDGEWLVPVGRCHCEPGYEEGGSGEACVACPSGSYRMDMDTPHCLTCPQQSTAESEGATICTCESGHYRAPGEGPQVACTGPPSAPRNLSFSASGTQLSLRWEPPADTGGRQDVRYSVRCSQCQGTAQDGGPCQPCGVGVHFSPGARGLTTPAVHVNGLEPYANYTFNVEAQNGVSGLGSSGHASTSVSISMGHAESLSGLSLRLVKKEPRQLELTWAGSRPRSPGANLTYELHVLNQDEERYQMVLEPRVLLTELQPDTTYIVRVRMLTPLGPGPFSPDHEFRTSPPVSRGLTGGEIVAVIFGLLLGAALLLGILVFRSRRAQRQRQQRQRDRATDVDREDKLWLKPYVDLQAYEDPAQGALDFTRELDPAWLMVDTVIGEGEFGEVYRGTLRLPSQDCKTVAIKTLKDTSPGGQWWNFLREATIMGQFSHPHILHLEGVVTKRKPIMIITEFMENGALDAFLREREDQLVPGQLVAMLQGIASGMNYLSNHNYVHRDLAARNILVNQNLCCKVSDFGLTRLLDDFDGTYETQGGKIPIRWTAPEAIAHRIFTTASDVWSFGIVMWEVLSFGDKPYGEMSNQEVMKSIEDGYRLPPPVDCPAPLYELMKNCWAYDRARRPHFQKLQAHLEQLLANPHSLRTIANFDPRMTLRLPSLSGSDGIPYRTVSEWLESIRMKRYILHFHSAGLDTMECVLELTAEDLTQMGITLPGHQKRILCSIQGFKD

[5] = target: Tyrosine-protein kinase ABL2 (Homo sapiens) (UniProt P42684); assay: Residual activity of ABL2 at 10 uM by microplate scintillation counting
Chain of Tyrosine-protein kinase ABL2 (Homo sapiens) (P42684 whole entry): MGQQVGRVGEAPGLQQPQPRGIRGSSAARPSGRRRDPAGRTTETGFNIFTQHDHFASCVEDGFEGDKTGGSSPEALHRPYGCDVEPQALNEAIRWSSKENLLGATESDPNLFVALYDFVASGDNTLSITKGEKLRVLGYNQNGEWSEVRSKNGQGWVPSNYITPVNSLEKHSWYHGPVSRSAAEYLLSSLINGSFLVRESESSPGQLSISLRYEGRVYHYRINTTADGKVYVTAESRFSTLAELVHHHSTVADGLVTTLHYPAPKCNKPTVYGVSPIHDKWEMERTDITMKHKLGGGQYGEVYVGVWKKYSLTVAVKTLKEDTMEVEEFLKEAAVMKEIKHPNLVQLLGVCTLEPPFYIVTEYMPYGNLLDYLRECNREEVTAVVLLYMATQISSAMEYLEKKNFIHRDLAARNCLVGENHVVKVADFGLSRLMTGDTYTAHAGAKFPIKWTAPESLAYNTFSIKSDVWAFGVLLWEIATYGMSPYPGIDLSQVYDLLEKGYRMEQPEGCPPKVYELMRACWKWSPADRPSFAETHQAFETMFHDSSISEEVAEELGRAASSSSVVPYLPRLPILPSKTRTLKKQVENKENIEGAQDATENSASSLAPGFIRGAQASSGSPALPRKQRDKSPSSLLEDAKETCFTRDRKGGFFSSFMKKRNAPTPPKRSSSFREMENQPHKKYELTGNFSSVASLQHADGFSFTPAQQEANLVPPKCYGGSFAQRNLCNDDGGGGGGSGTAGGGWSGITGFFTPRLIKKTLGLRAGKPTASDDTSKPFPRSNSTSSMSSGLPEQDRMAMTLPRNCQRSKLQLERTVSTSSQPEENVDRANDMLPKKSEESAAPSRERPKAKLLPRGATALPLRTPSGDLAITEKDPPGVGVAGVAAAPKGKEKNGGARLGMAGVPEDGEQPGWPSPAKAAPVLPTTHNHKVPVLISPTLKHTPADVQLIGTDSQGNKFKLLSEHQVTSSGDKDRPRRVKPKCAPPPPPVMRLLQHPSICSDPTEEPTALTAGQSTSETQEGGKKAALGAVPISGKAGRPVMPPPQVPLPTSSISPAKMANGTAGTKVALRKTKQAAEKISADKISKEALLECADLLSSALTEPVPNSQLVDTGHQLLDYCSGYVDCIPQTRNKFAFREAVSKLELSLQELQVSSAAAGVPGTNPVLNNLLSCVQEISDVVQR

Compound: COc1cc2c(Oc3ccc(-c4nc5ccccc5s4)cc3)ncnc2cc1OCCCN1CCN(C)CC1
- residual activity [1]: 82%
- residual activity [2]: 86%
- residual activity [3]: 84%
- residual activity [4]: 169%
- residual activity [5]: 170%

Compound: COc1cc2c(Oc3ccc(-c4nc5ccccc5s4)cc3)ncnc2cc1OCCCN1CCCC1
- residual activity [1]: 86%
- residual activity [2]: 93%
- residual activity [3]: 100%
- residual activity [4]: 199%
- residual activity [5]: 147%

Compound: COc1cc2c(Oc3ccc(-c4nc5ccccc5s4)cc3F)ncnc2cc1OCCCN1CCN(C)CC1
- residual activity [1]: 90%
- residual activity [2]: 102%
- residual activity [3]: 103%
- residual activity [4]: 79%
- residual activity [5]: 93%

Source: ChEMBL document CHEMBL1152560, “Substituted 2-arylbenzothiazoles as kinase inhibitors: hit-to-lead optimization” (Bioorg Med Chem, 2009)
